# From patent publication US9815832B2 (priority 2013, dated 2017)
# Counter-ions that a name gives are not always drawn.
# Biological target: human recombinant PDE4B (Homo sapiens (Human), UniProt Q07343, S133E/S654A/S659A/S661A)
# Details: read-out: Human PDE4B FL
# Method: Reactions are incubated for 30 min at 25° C. The addition of 20 μL of 8 mg/mL yitrium silicate SPA beads (PerkinElmer) stops the reaction. The plates are sealed (TopSeal, PerkinElmer) and the beads are allowed to settle for 8 hrs, after which they are read on the Trilux Microbeta overnight.
# Chain of human recombinant PDE4B (Q07343 122-736 S133E/S654A/S659A/S661A): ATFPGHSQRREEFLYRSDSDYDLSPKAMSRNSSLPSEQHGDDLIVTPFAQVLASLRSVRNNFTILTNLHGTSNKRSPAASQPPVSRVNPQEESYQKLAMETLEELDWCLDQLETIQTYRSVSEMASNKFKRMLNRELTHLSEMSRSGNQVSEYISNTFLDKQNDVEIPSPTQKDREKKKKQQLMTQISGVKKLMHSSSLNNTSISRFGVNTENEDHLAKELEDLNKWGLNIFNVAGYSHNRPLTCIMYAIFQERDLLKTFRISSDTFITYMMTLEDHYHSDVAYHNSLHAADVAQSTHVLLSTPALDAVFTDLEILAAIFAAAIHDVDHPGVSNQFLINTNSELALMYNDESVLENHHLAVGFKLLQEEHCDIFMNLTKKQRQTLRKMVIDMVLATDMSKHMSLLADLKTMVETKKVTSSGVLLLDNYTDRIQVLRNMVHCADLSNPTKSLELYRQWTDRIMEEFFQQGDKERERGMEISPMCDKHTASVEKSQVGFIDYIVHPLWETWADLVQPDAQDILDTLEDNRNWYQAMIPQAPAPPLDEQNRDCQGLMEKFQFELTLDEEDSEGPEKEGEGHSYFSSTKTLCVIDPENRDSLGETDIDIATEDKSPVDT
row,SMILES,IC50
1,"O=C(c1nc2cccnc2n1-c1ccc(Cl)cc1)N1CCC1 [Example 16, Azetidin-1-yl[3-(4-chlorophenyl)-3H-imidazo[4,5-b]pyridin-2-yl]methanone]",0.196 µM
2,"O=C(NC1CC1)c1nc2cccnc2n1-c1cc(Cl)cc(Cl)c1 [Example 63, N-Cyclopropyl-3-(3,5-dichlorophenyl)-3H-imidazo[4,5-b]pyridine-2-carboxamide]",0.068 µM
3,"O=C(NC1CC1)c1nc2cccnc2n1-c1cncc(Cl)c1 [Example 37, 3-(5-Chloropyridin-3-yl)-N-cyclopropyl-3H-imidazo[4,5-b]pyridine-2-carboxamide]",0.409 µM
4,"N#Cc1c(F)cc(-n2c(C(=O)NC3CC3)nc3cccnc32)cc1F [Example 20, 3-(4-Cyano-3,5-difluorophenyl)-N-cyclopropyl-3H-imidazo[4,5-b]pyridine-2-carboxamide]",0.0138 µM
5,"CN(C)C(=O)c1nc2cccnc2n1-c1ccc(Cl)c(F)c1 [Example 11, 3-(4-Chloro-3-fluorophenyl)-N,N-dimethyl-3H-imidazo[4,5-b]pyridine-2-carboxamide]",0.405 µM
6,"COc1ccc(-n2c(C(=O)NC3CC3)nc3cccnc32)cc1 [Example 58, N-Cyclopropyl-3-(4-methoxyphenyl)-3H-imidazo[4,5-b]pyridine-2-carboxamide]",0.506 µM
7,"COc1ccc(-n2c(C(=O)NC3CC3)nc3cccnc32)c(C)c1 [Example 89, N-Cyclopropyl-3-(4-methoxy-2-methylphenyl)-3H-imidazo[4,5-b]pyridine-2-carboxamide]",3.52 µM
8,"COc1ccc(-n2c(C(=O)NC3CC3)nc3cccnc32)cc1OC [Example 87, N-Cyclopropyl-3-(3,4-dimethoxyphenyl)-3H-imidazo[4,5-b]pyridine-2-carboxamide]",2.72 µM
9,"Cc1ccc(-n2c(C(=O)N3CCC3)nc3cccnc32)cc1F [Example 18, Azetidin-1-yl[3-(3-fluoro-4-methylphenyl)-3H-imidazo[4,5-b]pyridin-2-yl]methanone]",0.0487 µM
10,"Cc1ccc(F)cc1-n1c(C(=O)NC2CC2)nc2cccnc21 [Example 44, N-Cyclopropyl-3-(5-fluoro-2-methylphenyl)-3H-imidazo[4,5-b]pyridine-2-carboxamide]",1.66 µM
11,"O=C(c1nc2cccnc2n1-c1ccc(Cl)cc1F)N1CCC1 [Example 22, Azetidin-1-yl[3-(4-chloro-2-fluorophenyl)-3H-imidazo[4,5-b]pyridin-2-yl]methanone]",0.273 µM
12,"NC(=O)c1nc2cccnc2n1-c1ccc(Cl)c(F)c1 [Example 17, 3-(4-Chloro-3-fluorophenyl)-3H-imidazo[4,5-b]pyridine-2-carboxamide]",8.51 µM
13,"Cc1cc(Cl)ccc1-n1c(C(=O)NC2CC2)nc2cccnc21 [Example 26, 3-(4-Chloro-2-methylphenyl)-N-cyclopropyl-3H-imidazo[4,5-b]pyridine-2-carboxamide]",0.319 µM
14,"O=C(NC1CC1)c1nc2cccnc2n1-c1cccc(F)c1 [Example 65, N-Cyclopropyl-3-(3-fluorophenyl)-3H-imidazo[4,5-b]pyridine-2-carboxamide]",0.188 µM
15,"O=C(c1nc2cccnc2n1-c1cc(F)c(Cl)cc1F)N1CCC1 [Example 12, Azetidin-1-yl[3-(4-chloro-2,5-difluorophenyl)-3H-imidazo[4,5-b]pyridin-2-yl]methanone, trifluoroacetate salt]",0.0994 µM
16,"COc1cc(-n2c(C(=O)NC3CC3)nc3cccnc32)ccc1F [Example 55, N-Cyclopropyl-3-(4-fluoro-3-methoxyphenyl)-3H-imidazo[4,5-b]pyridine-2-carboxamide]",0.304 µM
17,"O=C(NC1CC1)c1nc2cccnc2n1-c1ccccc1 [Example 57, N-Cyclopropyl-3-phenyl-3H-imidazo[4,5-b]pyridine-2-carboxamide]",1.16 µM
18,"Cc1cc(F)ccc1-n1c(C(=O)NC2CC2)nc2cccnc21 [Example 60, N-Cyclopropyl-3-(4-fluoro-2-methylphenyl)-3H-imidazo[4,5-b]pyridine-2-carboxamide]",1.2 µM
19,"O=C(NC1CC1)c1nc2cccnc2n1-c1ccc2c(c1)COC2 [Example 61, N-Cyclopropyl-3-(1,3-dihydro-2-benzofuran-5-yl)-3H-imidazo[4,5-b]pyridine-2-carboxamide]",1.58 µM
20,"O=C(c1nc2cccnc2n1-c1ccc(Cl)cc1F)N1CC(F)C1 [Example 25, [3-(4-Chloro-2-fluorophenyl)-3H-imidazo[4,5-b]pyridin-2-yl](3-fluoroazetidin-1-yl)methanone]",0.91 µM
21,"O=C(NC1CC1)c1nc2cccnc2n1-c1ccc2ncsc2c1 [Example 71, 3-(1,3-Benzothiazol-6-yl)-N-cyclopropyl-3H-imidazo[4,5-b]pyridine-2-carboxamide]",0.155 µM
22,"Cn1ccc(NC(=O)c2nc3cccnc3n2-c2ccc(Cl)cc2)n1 [Example 24, 3-(4-Chlorophenyl)-N-(1-methyl-1H-pyrazol-3-yl)-3H-imidazo[4,5-b]pyridine-2-carboxamide]",0.211 µM
23,"Cc1ccc(-n2c(C(=O)NC3CC3)nc3cccnc32)cn1 [Example 85, N-Cyclopropyl-3-(6-methylpyridin-3-yl)-3H-imidazo[4,5-b]pyridine-2-carboxamide]",7.73 µM

row,SMILES,IC50
1,"O=C(c1nc2cccnc2n1-c1cncc(Cl)c1)N1CCC1 [Example 38, Azetidin-1-yl[3-(5-chloropyridin-3-yl)-3H-imidazo[4,5-b]pyridin-2-yl]methanone]",0.466 µM
2,"N#Cc1cccc(-n2c(C(=O)NC3CC3)nc3cccnc32)c1 [Example 53, 3-(3-Cyanophenyl)-N-cyclopropyl-3H-imidazo[4,5-b]pyridine-2-carboxamide]",0.287 µM
3,"O=C(NC1CC1)c1nc2cccnc2n1-c1cc(F)ccc1Cl [Example 90, 3-(2-Chloro-5-fluorophenyl)-N-cyclopropyl-3H-imidazo[4,5-b]pyridine-2-carboxamide]",9.23 µM
4,"CCCNC(=O)c1nc2cccnc2n1-c1ccc(Cl)c(F)c1 [Example 6, 3-(4-Chloro-3-fluorophenyl)-N-propyl-3H-imidazo[4,5-b]pyridine-2-carboxamide]",0.0381 µM
5,"O=C(NC1CC1)c1nc2cccnc2n1-c1ccnc(C(F)(F)F)c1 [Example 82, N-Cyclopropyl-3-[2-(trifluoromethyl)pyridin-4-yl]-3H-imidazo[4,5-b]pyridine-2-carboxamide]",6.07 µM
6,"Cc1cc(C)cc(-n2c(C(=O)NC3CC3)nc3cccnc32)c1 [Example 76, N-Cyclopropyl-3-(3,5-dimethylphenyl)-3H-imidazo[4,5-b]pyridine-2-carboxamide]",0.374 µM
7,"COc1cc(-n2c(C(=O)NC3CC3)nc3cccnc32)ccc1C [Example 50, N-Cyclopropyl-3-(3-methoxy-4-methylphenyl)-3H-imidazo[4,5-b]pyridine-2-carboxamide]",0.339 µM
8,"Cc1ccc(-n2c(C(=O)N3CC(F)C3)nc3cccnc32)cc1F [Example 19, (3-Fluoroazetidin-1-yl)[3-(3-fluoro-4-methylphenyl)-3H-imidazo[4,5-b]pyridin-2-yl]methanone]",0.281 µM
9,"Cc1ccc(-n2c(C(=O)NC3CC3)nc3cccnc32)c(Cl)c1 [Example 88, 3-(2-Chloro-4-methylphenyl)-N-cyclopropyl-3H-imidazo[4,5-b]pyridine-2-carboxamide]",3.7 µM
10,"O=C(NC1CC1)c1nc2cccnc2n1-c1ccc(Cl)cc1F [Example 23, 3-(4-Chloro-2-fluorophenyl)-N-cyclopropyl-3H-imidazo[4,5-b]pyridine-2-carboxamide]",0.632 µM
11,"Cc1nc2ccc(-n3c(C(=O)NC4CC4)nc4cccnc43)cc2s1 [Example 73, N-Cyclopropyl-3-(2-methyl-1,3-benzothiazol-6-yl)-3H-imidazo[4,5-b]pyridine-2-carboxamide]",0.516 µM
12,"Cc1cc(Cl)ccc1-n1c(C(=O)N2CCC2)nc2cccnc21 [Example 34, Azetidin-1-yl[3-(4-chloro-2-methylphenyl)-3H-imidazo[4,5-b]pyridin-2-yl]methanone]",0.399 µM
13,"Cc1ccc(Cl)c(-n2c(C(=O)NC3CC3)nc3cccnc32)c1 [Example 91, 3-(2-Chloro-5-methylphenyl)-N-cyclopropyl-3H-imidazo[4,5-b]pyridine-2-carboxamide]",9.42 µM
14,"CCCNC(=O)c1nc2cccnc2n1-c1ccc(Cl)cc1 [Example 13, 3-(4-Chlorophenyl)-N-propyl-3H-imidazo[4,5-b]pyridine-2-carboxamide]",0.944 µM
15,"Cc1ccc(-n2c(C(=O)NC3CC3)nc3cccnc32)cc1 [Example 29, N-Cyclopropyl-3-(4-methylphenyl)-3H-imidazo[4,5-b]pyridine-2-carboxamide]",0.225 µM
16,"Cc1cc(-n2c(C(=O)NC3CC3)nc3cccnc32)c(Cl)cc1F [Example 84, 3-(2-Chloro-4-fluoro-5-methylphenyl)-N-cyclopropyl-3H-imidazo[4,5-b]pyridine-2-carboxamide]",16.6 µM
17,"O=C(NC1CC1)c1nc2cccnc2n1-c1ccc2c(c1)CCC2 [Example 64, N-Cyclopropyl-3-(2,3-dihydro-1H-inden-5-yl)-3H-imidazo[4,5-b]pyridine-2-carboxamide]",0.206 µM
18,"N#Cc1ccc(-n2c(C(=O)NC3CC3)nc3cccnc32)cc1 [Example 42, 3-(4-Cyanophenyl)-N-cyclopropyl-3H-imidazo[4,5-b]pyridine-2-carboxamide]",0.276 µM
19,"O=C(NC1CC1)c1nc2cccnc2n1C1CCOCC1 [Example 15, N-Cyclopropyl-3-(tetrahydro-2H-pyran-4-yl)-3H-imidazo[4,5-b]pyridine-2-carboxamide]",1.73 µM
20,"N#Cc1ccc(-n2c(C(=O)NC3CC3)nc3cccnc32)cn1 [Example 39, 3-(6-Cyanopyridin-3-yl)-N-cyclopropyl-3H-imidazo[4,5-b]pyridine-2-carboxamide]",0.363 µM
21,"Cc1ccc(-n2c(C(=O)NC3CC3)nc3cccnc32)c(F)c1 [Example 67, N-Cyclopropyl-3-(2-fluoro-4-methylphenyl)-3H-imidazo[4,5-b]pyridine-2-carboxamide]",0.619 µM
22,"Cn1ccc(NC(=O)c2nc3cccnc3n2C2CCCC2)n1 [Example 14, 3-Cyclopentyl-N-(1-methyl-1H-pyrazol-3-yl)-3H-imidazo[4,5-b]pyridine-2-carboxamide]",0.822 µM
